Common to all, as to parameters: species or system AML cell lines (8); Primary HTS, single concentration about 10 uM, Cell Titer Glo viability; log10 luminescence, per cent inhibition relative to cycloheximide control
Common to all, as to conditions: 72 h, relative to cycloheximide control, log10 luminescence, inhibitor

Test [1] concerns CMS.
Test [2] has as its system CMK.
Test [3] relates to MV4-11.
Test [4] has as its system MOLM-13.
The test system of test [5] is U937.
The test system of test [6] is M07e.
Test [7] deals with ML-2.
The test system of test [8] is CHRF288-11.

Read-outs that look alike come from different tables or passages of the source. Square brackets hold non-standard residues; d marks the D form. Peptide text beside a SMILES is read from it. Nle = CCCC[C@H](N)C(=O)O

As for `Nc1nccc(-c2c(-c3ccc(F)cc3)ncn2CCCN2CCOCC2)n1` [SJ000573180-1, TG19207-124A1], in test [1], the CMS %inh is recorded as -3.18%. Besides, the CMK %inh in test [2] was -0.5604%. Moreover, in test [3], the MV4-11 %inh amounted to 0.7283%. Also, in test [4], the MOLM-13 %inh was -0.9293%. Besides, in test [5], the U937 %inh was found to be 3.947%. The M07e %inh in test [6] was determined as 1.031%. Further, the ML-2 %inh in test [7] was found to be 2.942%. In addition, in test [8], the CHRF288-11 %inh is reported as -0.01823%.
For the compound `COc1ccc(C2=C(c3cn(C)c4ccccc34)C(=O)NC2=O)cc1OC` [SJ000581003-1], the CMS %inh in test [1] was determined as 5.298%. Also, in test [2], the CMK %inh stood at 38.95%. Moreover, the MV4-11 %inh in test [3] is 4.678%. The MOLM-13 %inh in test [4] turned out to be 0.7842%. Besides, the U937 %inh in test [5] is on record as 6.689%. The M07e %inh in test [6] is given as -0.2143%. Besides, the ML-2 %inh in test [7] is on record as -1.913%. For the same compound, the CHRF288-11 %inh in test [8] is 6.661%.
Consider `CCN(CC)S(=O)(=O)c1ccc(OC)c(Nc2ncc(-c3ccccc3)o2)c1` [SJ000573177-1, U14961/35/1], for which the CMS %inh in test [1] came out at 2.203%. In addition, the CMK %inh in test [2] is listed as 11.05%. Also, the MV4-11 %inh in test [3] stood at 74.67%. Besides, the MOLM-13 %inh in test [4] stood at 13.29%. Further, the U937 %inh in test [5] is on record as 3.148%. In test [6], the M07e %inh is given as -3.903%. Also, the ML-2 %inh in test [7] worked out at 1.232%. Also, in test [8], the CHRF288-11 %inh is on record as -8.829%.
Consider `Nc1nccc(-c2c(-c3ccc(F)cc3)ncn2C2CCC(O)CC2)n1` (stereo not shown) [SJ000573182-1, MS27011-022A2], for which, in test [1], the CMS %inh was 9.299%. For the same compound, the CMK %inh in test [2] is given as 25.82%. For the same compound, in test [3], the MV4-11 %inh is recorded as 24.38%. The MOLM-13 %inh in test [4] is 26.67%. In test [5], the U937 %inh worked out at 5.213%. In test [6], the M07e %inh is on record as 6.63%. Also, the ML-2 %inh in test [7] turned out to be 10.85%. Besides, in test [8], the CHRF288-11 %inh came to 23.09%.
With `Cn1cc(C2=C(c3ccccc3C(F)(F)F)C(=O)NC2=O)c2ccccc21` [SJ000580979-1], the CMS %inh in test [1] stood at 5.043%. For the same compound, the CMK %inh in test [2] is on record as 21.16%. For the same compound, the MV4-11 %inh in test [3] is recorded as 10.38%. The MOLM-13 %inh in test [4] is on record as 4.778%. Further, the U937 %inh in test [5] is on record as 1.904%. Further, the M07e %inh in test [6] is reported as -0.07648%. Also, in test [7], the ML-2 %inh stood at 0.8133%. Further, in test [8], the CHRF288-11 %inh is 19.74%.
With `CN(CCCCCCCCCCN(C)C(=O)Oc1cccc([N+](C)(C)C)c1)C(=O)Oc1cccc([N+](C)(C)C)c1` [SJ000287334-3, DEMECARIUM BROMIDE], the CMS %inh in test [1] (CMS %inh, 10 µM) came out at 4.988%. In test [2] (CMK %inh, 10 µM), the CMK %inh worked out at 4.147%. The MV4-11 %inh in test [3] (MV4-11 %inh, 10 µM) is 33.39%. Besides, the MOLM-13 %inh in test [4] (MOLM-13 %inh, 10 µM) is on record as 13.7%. Further, the U937 %inh in test [5] (U937 %inh, 10 µM) is on record as 32.99%. The M07e %inh in test [6] (M07e %inh, 10 µM) is 11.04%. For the same compound, the ML-2 %inh in test [7] (ML-2 %inh, 10 µM) is 2.323%. Also, the CHRF288-11 %inh in test [8] (CHRF288-11 %inh, 10 µM) is listed as -4.258%.
Consider `CN(c1ccc(NC(=O)NCCN2CCOCC2)cc1)c1ccnc(Nc2ccc(CS(C)(=O)=O)cc2)n1` [SJ000573175-1, U17983/92/2], for which the CMS %inh in test [1] is recorded as 0.2292%. Besides, the CMK %inh in test [2] was -0.4287%. Besides, the MV4-11 %inh in test [3] came out at 85.52%. In test [4], the MOLM-13 %inh was determined as 82.21%. The U937 %inh in test [5] was found to be 4.061%. The M07e %inh in test [6] amounted to 2.849%. Besides, in test [7], the ML-2 %inh is listed as 2.492%. In addition, in test [8], the CHRF288-11 %inh is -0.5072%.
Consider `Cn1cc(C2=C(c3cn(C)c4ccc(Cl)cc34)C(=O)NC2=O)c2ccccc21` [SJ000581098-1], for which, in test [1], the CMS %inh is 0.498%. Besides, the CMK %inh in test [2] is 47.95%. For the same compound, the MV4-11 %inh in test [3] was 5.255%. In addition, the MOLM-13 %inh in test [4] was 13.33%. Further, in test [5], the U937 %inh was 4.952%. For the same compound, in test [6], the M07e %inh worked out at 13.21%. Also, the ML-2 %inh in test [7] is reported as 3.034%. For the same compound, in test [8], the CHRF288-11 %inh is reported as 10.98%.
On to `COc1cc2ncn(-c3cc(OCc4ccccc4C(F)(F)F)c(C(N)=O)s3)c2cc1OC` [SJ000573017-1, U19479/72/1], for which the CMS %inh in test [1] was 10.85%. Moreover, the CMK %inh in test [2] was 61.69%. Moreover, the MV4-11 %inh in test [3] is given as 11.51%. Further, the MOLM-13 %inh in test [4] was 75.9%. Also, in test [5], the U937 %inh was determined as 52.87%. In addition, in test [6], the M07e %inh is recorded as 75.37%. Further, in test [7], the ML-2 %inh amounted to 50.35%. Further, the CHRF288-11 %inh in test [8] came to 5.686%.
As for `O=C1NC(=NCC(CO)c2ccccc2)S/C1=C\c1ccc2ncccc2c1` (stereo not shown) [SJ000581063-1], the CMS %inh in test [1] was 4.364%. In addition, the CMK %inh in test [2] is given as -3.487%. Further, the MV4-11 %inh in test [3] stood at 53.98%. The MOLM-13 %inh in test [4] came to 2.415%. For the same compound, the U937 %inh in test [5] was found to be 16.39%. In addition, the M07e %inh in test [6] is 4.562%. For the same compound, the ML-2 %inh in test [7] came out at 3.168%. Also, the CHRF288-11 %inh in test [8] is reported as 1.779%.
Take `CCCC[C@@H](C=O)NC(=O)[C@H](CC(C)C)NC(=O)[C@H](CC(C)C)NC(C)=O` [SJ000772397-1, MG 101 | ALLN] (Ac-Leu-Leu-[Nle]-aldehyde): the CMS %inh in test [1] came out at 98.27%. In addition, the CMK %inh in test [2] came to 126.5%. Besides, in test [3], the MV4-11 %inh came to 82.08%. The MOLM-13 %inh in test [4] was 102.2%. Besides, in test [5], the U937 %inh stood at 52.66%. The M07e %inh in test [6] was 121%. Also, in test [7], the ML-2 %inh was 57.14%. The CHRF288-11 %inh in test [8] came out at 140.2%.
Turning to `CO[C@H]1O[C@@H]2O[C@@]3(C)CC[C@H]4[C@H](C)CC[C@@H]([C@H]1C)[C@@]24OO3` [SJ000519015-1], the CMS %inh in test [1] came to 7.594%. In test [2], the CMK %inh is on record as 0.2838%. Also, the MV4-11 %inh in test [3] is on record as 9.901%. Besides, the MOLM-13 %inh in test [4] is 2.58%. Also, in test [5], the U937 %inh was determined as 20.8%. Besides, the M07e %inh in test [6] came out at 0.2631%. Also, in test [7], the ML-2 %inh is on record as 5.533%. Also, the CHRF288-11 %inh in test [8] was -0.3434%.
Take `Cc1ccc(O)cc1Nc1ccnc2cc(-c3ccccn3)ccc12` [SJ000573269-1, R1902/28/3 | HC 206053 | GW440139B | | RTP SMTECH | SID124349934 | TCMDC-138201 | GW440139B |]: in test [1], the CMS %inh amounted to 4.641%. For the same compound, the CMK %inh in test [2] stood at 50.01%. Also, the MV4-11 %inh in test [3] came to 3.761%. In test [4], the MOLM-13 %inh was found to be 20.29%. Also, the U937 %inh in test [5] is 14.95%. Further, the M07e %inh in test [6] is listed as 10.95%. Besides, in test [7], the ML-2 %inh was found to be 1.439%. Besides, the CHRF288-11 %inh in test [8] is reported as 60.6%.
As to `Oc1c(Cl)cc(Cl)c2cccnc12` [SJ000285324-3, CHLOROXINE], in test [1], the CMS %inh worked out at 2.824%. Also, the CMK %inh in test [2] is recorded as 45.1%. In test [3], the MV4-11 %inh amounted to 77.67%. Moreover, the MOLM-13 %inh in test [4] was determined as 6.345%. The U937 %inh in test [5] was found to be 23.85%. For the same compound, in test [6], the M07e %inh stood at 20.56%. Moreover, in test [7], the ML-2 %inh stood at 49.1%. The CHRF288-11 %inh in test [8] worked out at 73.25%.
Turning to `CCS(=O)(=O)c1ccc(OC)c(Nc2ncc(-c3cccc(C(C)=O)c3)o2)c1` [SJ000573024-1, U16419/42/1], the CMS %inh in test [1] is listed as -0.9431%. Moreover, in test [2], the CMK %inh worked out at 1.586%. Further, the MV4-11 %inh in test [3] was found to be 66.42%. Besides, in test [4], the MOLM-13 %inh is 78.46%. Besides, the U937 %inh in test [5] came out at 71.28%. Besides, the M07e %inh in test [6] is reported as 133.2%. For the same compound, the ML-2 %inh in test [7] is given as -2.018%. In test [8], the CHRF288-11 %inh is reported as -0.8609%.
For `CCn1c(-c2nonc2N)nc2ccccc21` [SJ000573156-1, U17602/18/1 | JT100597-005A1], the CMS %inh in test [1] is listed as -3.86%. Also, the CMK %inh in test [2] was -4.724%. Further, in test [3], the MV4-11 %inh is listed as -3.157%. Besides, the MOLM-13 %inh in test [4] was -2.502%. Moreover, the U937 %inh in test [5] is -1.491%. Further, the M07e %inh in test [6] is given as 0.4432%. For the same compound, in test [7], the ML-2 %inh was 2.051%. In addition, the CHRF288-11 %inh in test [8] is given as -4.898%.
Take `COc1cc(C=NNc2ncnc3c2cnn3Cc2ccccc2)ccc1O` [SJ000573058-1, T237/25/8]: the CMS %inh in test [1] is listed as -1.754%. The CMK %inh in test [2] was -3.542%. For the same compound, the MV4-11 %inh in test [3] was -3.195%. In test [4], the MOLM-13 %inh is reported as -1.629%. In addition, the U937 %inh in test [5] was -2.319%. Further, the M07e %inh in test [6] was -2.447%. Also, the ML-2 %inh in test [7] is listed as 0.3051%. The CHRF288-11 %inh in test [8] is -7.429%.

(Values after PMC6522510 (Nature Communications, 2019).)
